Laboratory results taken from US20110288045A1, “WET GRANULATION OF TENOFOVIR, EMTRICITABINE AND EFAVIRENZ” (ULTIMORPHIX TECHNOLOGIES B.V., priority 2008, published 2011).
Entries after “also recorded” stand apart in the source; their conditions may differ. Structures can show the parent of a compound that is named as a salt. Where two headings read alike, the source gives them in different places.

How the values were obtained:
[1] = wet granulation of the three drugs (Efavirenz, Tenofovir DF, Emtricitabine) together; US2007099902A1, EP1890681; cited from earlier work
[2] = Stability testing at 33 weeks of wet granulated Truvada and Atripla combination formulations, by HPLC; format: physicochemical
Procedure: Stability Testing at 33 Weeks
The stability of the Truvada and Atripla combination formulations after wet granulation was checked by HPLC after 33 weeks storage under 75% Relative Humidity (RH) and 40° C.
Two types of formulations were prepared for each combination, one containing the Tenofovir Disoproxil Fumarate and the other one containing the Tenofovir Disoproxil Hemifumarate co-crystal. In both combinations, water content of 30 and 40% was prepared.

[3] = HPLC assay for degradation products after wet granulation; format: physicochemical; conditions: for Impurity peaks of Tenofovir disoproxil at 26.57 and 36.0 min (HPLC): wet granulation with Emtricitabine (Table 1)
Procedure: Analytical Methods: HPLC Assay for Degradation Product
Emtricitabine/Tenofovir disoproxil (Fumarate or Hemifumarate) granules are assayed by HPLC for Emtricitabine and Tenofovir disoproxil (Fumarate or Hemifumarate) using external references as described in US2007/0077295. The presence of degradation products are determined by area normalization. The identities of Emtricitabine and Tenofovir disoproxil (Fumarate or Hemifumarate) are confirmed by comparison of their retention times with those of the reference standards.
Approximately 6520 mg of Emtricitabine/Tenofovir disoproxil (Fumarate or Hemifumarate) granules was weighted into a 1 L volumetric flask. Added was 400 mL 25 mM phosphate buffer, pH 3 to the volumetric flask. Mixing was performed by stirring vigorously for about 75 minutes. 50:50 acetonitrile: methanol was added to the flask to approximately 2 cm below the 1 L mark. The solution was equilibrated to ambient temperature by mixing for 1 hour. The volume was diluted to 1 L with 50:50 acetonitrile: methanol and mixed well by stirring with a magnetic stirring bar. Using a 0.45 μm syringe filter with a syringe, approximately 10 mL for the next dilution was filtered. The first 2 mL of the filtrate was discarded. A class A pipette was used to transfer 5.0 mL of the filtrate into a 50 mL volumetric flask and dilute the to volume with sample solvent (40:30:30). […]
A composition comprising the ingredients and ratios as listed in table 1 are subjected to a standard wet granulation process with respectively 30% and 40% w/w water. The quality of the granulation was assessed visually. […]
A composition comprising the ingredients and ratios as listed in table 2 were subjected to a standard wet granulation process with respectively 30% and 40% w/w water. The quality of the granulation was assessed visually. […]
A composition comprising the ingredients and ratios as listed in Table 1 are subjected to a standard wet granulation process with respectively 30% and 40% w/w water. The quality of the granulation was assessed visually. […]

Degradation of Tenofovir disoproxil salt (HPLC chromatogram) [2]	Compound	Stability of Tenofovir DF [1]	Chemical stability during wet granulation (overall conclusion) ([3]; Truvada (table 1) and Atripla (table 2) formulations, 30% and 40% w/w water)	Impurity peaks of Tenofovir disoproxil at 26.57 and 36.0 min (HPLC) ([3]; 30% w/w high pure water)	Impurity peaks of Tenofovir disoproxil at 26.57 and 36.0 min (HPLC) ([3]; 40% w/w high pure water)	Degradation of Tenofovir disoproxil salt (HPLC chromatogram) ([2]; Atripla sample prepared with 30% water, 33 weeks, 75% RH, 40° C.)	Degradation of Tenofovir disoproxil salt (HPLC chromatogram) ([2]; Atripla sample prepared with 40% water, 33 weeks, 75% RH, 40° C.)	Degradation of Tenofovir disoproxil salt (HPLC chromatogram) ([2]; Truvada sample prepared with 30% water, 33 weeks, 75% RH, 40° C.)	Degradation of Tenofovir disoproxil salt (HPLC chromatogram) ([2]; Truvada sample prepared with 40% water, 33 weeks, 75% RH, 40° C.)
to a large extent	CC(C)OC(=O)OCOP(=O)(CO[C@H](C)Cn1cnc2c(N)ncnc21)OCOC(=O)OC(C)C [Tenofovir disoproxil fumarate]	degraded rapidly; also recorded: unstable							
	Tenofovir disoproxil hemifumarate		stable	not observed	not observed	no degradation	less degradation	small degradation	small degradation
